# Laboratory results as given in patent US11578058B2, “Heterocyclic compounds for inhibiting TYK2 activities” (Beijing InnoCare Pharma Tech Co., Ltd., priority 2020, dated 2023).
# Tests used:
# [1] = test system: IL-12-induced IFN-γ secretion in NK92 cells; assay: Inhibition of IL-12-induced IFN-γ secretion in NK92 cells (ELISA); type: cell-based; details: Homo sapiens, IL-12, 24 hours, read-out: IC50 (NK92_IL12/IFN-γ)
# Protocol: The effect of the compounds of the present invention on IFN-γ secretion induced by TYK2 in NK92 cells is evaluated by an enzyme-linked immunosorbent assay (ELISA) (Table 2).
# IL-12 receptor is mainly expressed in activated T-cells, NK cells (NK92 is a NK cell line), DC cells, and B-cells. When binding to IL-12, it activates JAK2/TYK2 signal transduction pathway within NK cells and T lymphocytes, thereby inducing secretion of IFN-γ.
# The experimental method is generally described below:
# The 96-well plate is then incubated overnight in a 37° C./5% CO2 incubator.
# The plate is centrifuged at 800 rpm for 10 minutes at room temperature and 50 μL of the supernatant from each well is transferred to another 96-well plate (Sigma, Cat No. CLS3695) coated with anti-IFN-γ antibody. The amount of IFN-γ secretion is detected following the instruction from the Human IFN-gamma DuoSet ELISA kit (R & D Systems, Cat No. DY285B). […] The percentage of inhibition on IL-12 induced IFN-γ secretion in NK-92 cells by the test compound is calculated using the following formula: […]
# The IC50 value of the test compound is calculated from 8 concentration points using the XLfit software (ID Business Solutions Ltd., UK) by the following formula: […]
# Where Y is the percentage of inhibition, X is the logarithm of the concentration of the test compound, Bottom is the bottom plateau value of the S-shaped curve, Top is the top plateau value of the S-shaped curve, and slope factor is the slope coefficient of the curve.
# [2] = test system: anti-CD40 antibody-induced colitis; assay: Anti-CD40 antibody-induced colitis animal model; type: in vivo, CB17-Scid mice; details: for body weight loss after treatment in anti-CD40 colitis (IBD) model: mice; for Spleen weight, Mean: Day 8; for protection from colitis (body weight loss and spleen enlargement) versus vehicle group: Compound 3 at 1.5, 5 and 15 mg/kg, reference compound at 5 mg/kg, oral twice daily
# Protocol: The female CB17-Scid mice (8-10 weeks old, 18-20 g) from Beijing Vital River laboratory were randomly divided into 5 groups (n=8 per group). On Day 0, colitis was induced in mice each with a single intraperitoneal injection of 100 μg of FGK4.5 anti-CD40 mAb (BioXCell, Cat. No. EB0016-2) in PBS. […] On a daily basis, mice were weighed and monitored for signs of colitis including body weight loss and the accompanying loose stools and diarrhea. On Day 8, all animals were euthanized. Spleen tissues were collected and weighed.
# [3] = In vivo rat PK determination; design: species or system Sprague Dawley rats; details: for F: PO (5 mpk) vs IV (1 mpk); for AUClast / Cmax: PO (5 mpk), n = 3
# Protocol: The pharmacokinetics of Compound 3 of the present invention and the reference compound BMS-986165 were evaluated. Compound 3 has an OCD3 on a benzene ring, whereas the reference compound has an CD3 on an amide moiety. Methyl group is typically labile in vivo, subject to hydrolysis by amidase in the case of methylamide and to oxidative demethylation by CYPs in the case of methoxy and methyltriazole. Substituting methyl with tri-deuterated methyl improves the bioavailability and in vivo exposure of the compound and provides a better efficacy of the compound under the same dose.
# Compound 3 and the reference compound in a 0.5 mg/mL solution containing 5% N,N-dimethylacetamide+20% solutol+75% saline were orally administered to three male Sprague Dawley rats at a dose of 5 mg/kg. Blood samples were collected at 0.25, 0.5, 1, 2, 4, 8 and 24 hours after administration. The concentrations of the compound in the plasma were quantified by LC-MS/MS using an API-4500 mass spectrometer. The limit of quantification (LOQ) of analysis was 1 ng/mL. The pharmacokinetic (PK) parameters were calculated by the non-compartmental method using WinNonlin and are present in Table 3.
# [4] = In vivo rat PK determination; design: species or system Sprague Dawley rats; details: IV (1 mpk); for CL / Vss: n = 3; for T1/2: n = 3 (header span assumed)
smiles,measurement,setting,value
"[2H]C([2H])([2H])NC(=O)c1nnc(NC(=O)C2CC2)cc1Nc1cccc(-c2ncn(C)n2)c1OC([2H])([2H])[2H] [Compound 4, 6-(cyclopropanecarboxamido)-4-((2-(methoxy-d3)-3-(1-methyl-1H-1,2,4-triazol-3-yl)phenyl)amino)-N-(methyl-d3)pyridazine-3-carboxamide]",IC50,[1],11 nM
"CNC(=O)c1nnc(NC(=O)[C@@H]2CC2(F)F)cc1Nc1cccc(-c2ncn(C)n2)c1OC [Compound 6, (S)-6-(2,2-difluorocyclopropane-1-carboxamido)-4-((2-methoxy-3-(1-methyl-1H-1,2,4-triazol-3-yl)phenyl)amino)-N-methylpyridazine-3-carboxamide]",IC50,[1],47 nM
"[2H]C([2H])([2H])NC(=O)c1nnc(NC(=O)[C@@H]2CC2(F)F)cc1Nc1cccc(-c2ncn(C)n2)c1OC [Compound 5, (S)-6-(2,2-difluorocyclopropane-1-carboxamido)-4-((2-methoxy-3-(1-methyl-1H-1,2,4-triazol-3-yl)phenyl)amino)-N-(methyl-d3)pyridazine-3-carboxamide]",IC50,[1],52 nM
same,body weight loss after treatment in anti-CD40 colitis (IBD) model,[2],no significant body weight loss
"[2H]C([2H])([2H])Oc1c(Nc2cc(NC(=O)C3CC3)nnc2C(=O)NC)cccc1-c1ncn(C)n1 [Compound 3, 6-(cyclopropanecarboxamido)-4-((2-(methoxy-d3)-3-(1-methyl-1H-1,2,4-triazol-3-yl)phenyl)amino)-N-methylpyridazine-3-carboxamide]",F,[3],92%
same,AUClast,[3],6560 ng·h/mL
same,Cmax,[3],971 ng/mL
same,in vivo exposure compared with reference compound,[3]; oral 5 mg/kg,better in vivo exposures than the reference compound
same,IC50,[1],14 nM
same,"Spleen weight, Mean",[2]; 1.5 mg/kg oral twice daily,0.060 g
same,"Spleen weight, Mean",[2]; 5 mg/kg oral twice daily,0.037 g
same,"Spleen weight, Mean",[2]; 15 mg/kg oral twice daily,0.025 g
same,protection from colitis (body weight loss and spleen enlargement) versus vehicle group,[2],significantly protected mice from colitis
same,body weight loss after treatment in anti-CD40 colitis (IBD) model,[2],no significant body weight loss
same,CL,[4],12 mL/min/kg
same,Vss,[4],1.1 L/kg
same,T1/2,[4],4.3 h
"[2H]C([2H])([2H])NC(=O)c1nnc(NC(=O)C2CC2)cc1Nc1cccc(-c2ncn(C([2H])([2H])[2H])n2)c1OC [Compound 1, 6-(cyclopropanecarboxamido)-4-((2-methoxy-3-(1-(methyl-d3)-1H-1,2,4-triazol-3-yl)phenyl)amino)-N-(methyl-d3)pyridazine-3-carboxamide]",IC50,[1],16 nM
"[2H]C([2H])([2H])n1cnc(-c2cccc(Nc3cc(NC(=O)C4CC4)nnc3C(=O)NC)c2OC)n1 [Compound 2, 6-(cyclopropanecarboxamido)-4-((2-methoxy-3-(1-(methyl-d3)-1H-1,2,4-triazol-3-yl)phenyl)amino)-N-methylpyridazine-3-carboxamide]",IC50,[1],13 nM
same,body weight loss after treatment in anti-CD40 colitis (IBD) model,[2],no significant body weight loss
"[2H]C([2H])([2H])NC(=O)c1nnc(NC(=O)[C@H]2CC2(F)F)cc1Nc1cccc(-c2ncn(C)n2)c1OC [Compound 7, (R)-6-(2,2-difluorocyclopropane-1-carboxamido)-4-((2-methoxy-3-(1-methyl-1H-1,2,4-triazol-3-yl)phenyl)amino)-N-(methyl-d3)pyridazine-3-carboxamide]",IC50,[1],74 nM
"[2H]C([2H])([2H])NC(=O)c1nnc(NC(=O)C2CC2)cc1Nc1cccc(-c2ncn(C)n2)c1OC [BMS-986165, reference compound]",F,[3],46%
same,AUClast,[3],2828 ng·h/mL
same,Cmax,[3],632 ng/mL
same,IC50,[1],17 nM
same,"Spleen weight, Mean",[2]; 5 mg/kg oral twice daily,0.036 g
same,protection from colitis (body weight loss and spleen enlargement) versus vehicle group,[2],significantly protected mice from colitis
same,CL,[4],14 mL/min/kg
same,Vss,[4],1.5 L/kg
same,T1/2,[4],3.3 h
